Experimental data as given in patent US9302999B2, “Substituted triazoles as herbicides” (E. I. DU PONT DE NEMOURS AND COMPANY, priority 2012, dated 2016).

Columns and labels:
[1] = test system: Oilseed Rape; assay: Test C preemergence: oilseed rape; format: in vivo; conditions: scale of 0 to 100, 0 is no effect, 100 is complete control
From the text: (§1) Seeds of plant species selected from blackgrass (Alopecurus myosuroides), bromegrass, downy (downy bromegrass, Bromus tectorum), foxtail, green (green foxtail, Setaria viridis), ryegrass, Italian (Italian ryegrass, Lolium multiflorum), winter wheat (Triticum aestivum), wild oat (Avena fatua), galium (catchweed bedstraw, Galium aparine), bermudagrass (Cynodon dactylon), surinam grass (Brachiaria decumbens), cocklebur (common cocklebur, Xanthium strumarium), corn (Zea mays), large crabgrass (Digitaria sanguinalis), woolly cupgrass (Eriochloa villosa), foxtail, giant (giant foxtail, Setaria faberii), goosegrass (Eleusine indica), johnsongrass (Sorghum halepense), kochia (Kochia scoparia), lambsquarters (Chenopodium album), morningglory (Ipomoea coccinea), nightshade (eastern black nightshade, Solanum ptycanthum), nutsedge, yellow (yellow nutsedge, Cyperus esculentus), pigweed (Amaranthus retroflexus), ragweed (common ragweed, Ambrosia elation), soybean (Glycine max), common (oilseed) sunflower (Helianthus annuus), Russian thistle (Salsola kali) and velvetleaf (Abutilon theophrasti) were planted into a blend of loam soil and sand and treated preemergence with test chemicals formulated in a non-phytotoxic solvent mixture which included a surfactant.
(§2) Treated plants and controls were maintained in a greenhouse for 13 to 15 days, after which time all species were compared to controls and visually evaluated. Plant response ratings, summarized in Table C, are based on a scale of 0 to 100 where 0 is no effect and 100 is complete control. A dash (-) response means no test result.

[2] = test system: Oilseed Rape; assay: Test C pre-/postemergence: oilseed rape; format: in vivo; conditions: Preemergence, 250 g ai/ha; scale 0 to 100, 0 no effect, 100 complete control
From the text: as §1
(§3) At the same time, plants selected from these crop and weed species and also barley (winter barley, Hordeum vulgare), canarygrass (Phalaris minor), chickweed (common chickweed, Stellaria media) windgrass (Apera spica-venti) and deadnettle (henbit deadnettle, Lamium amplexicaule) were planted in pots containing Redi-Earth® planting medium (Scotts Company, 14111 Scottslawn Road, Marysville, Ohio 43041) comprising spaghnum peat moss, vermiculite, wetting agent and starter nutrients and treated with postemergence applications of test chemicals formulated in the same manner. Plants ranged in height from 2 to 18 cm (1- to 4-leaf stage) for postemergence treatments.
as §2

[3] = test system: Waterhemp; assay: Test C pre-/postemergence: waterhemp; format: in vivo; conditions: Preemergence, 250 g ai/ha; scale 0 to 100, 0 no effect, 100 complete control
From the text: as §1, §3, §2

[4] = test system: Oilseed Rape; assay: Test C preemergence: oilseed rape; format: in vivo, Brassica napus; conditions: 125 g ai/ha, scale 0 to 100, 0 no effect, 100 complete control
[5] = test system: barnyardgrass (Echinochloa crus-galli); assay: Test C pre-/postemergence: barnyardgrass; format: in vivo; conditions: Preemergence, 250 g ai/ha; scale 0 to 100, 0 no effect, 100 complete control
From the text: as §1, §3, §2

[6] = test system: Barnyardgrass; assay: Test C postemergence: barnyardgrass; format: in vivo, Echinochloa crus-galli
From the text: as §3, §2

[7] = test system: Waterhemp; assay: Test C postemergence: waterhemp; format: in vivo, Amaranthus rudis; conditions: 125 g ai/ha, scale 0 to 100, 0 no effect, 100 complete control
From the text: as §1, §3, §2

[8] = test system: Oilseed Rape; assay: Test C postemergence: oilseed rape; format: in vivo, Brassica napus; conditions: 125 g ai/ha, scale 0 to 100, 0 no effect, 100 complete control
From the text: as §1, §3, §2

[9] = test system: Waterhemp; assay: Test C postemergence: waterhemp; format: in vivo
From the text: as §3, §2

[10] = test system: Oilseed Rape; assay: Test C postemergence: oilseed rape; format: in vivo
From the text: as §3, §2

[11] = 31 g ai/ha, scale 0 to 100 (0 no effect, 100 complete control)
[12] = 62 g ai/ha, scale 0 to 100 (0 no effect, 100 complete control)

CCOCc1nn(-c2ccc(F)cc2)nc1Oc1ccnc(C(F)(F)F)c1 [Compound 163] was tested, and the “Plant response rating, Oilseed Rape” value ([1]; 31 g ai/ha) was 0, the “Plant response rating, Oilseed Rape” value ([1]; 62 g ai/ha) was 50 and the “Plant response rating, Oilseed Rape” value [2] was 95. For the same molecule, the “Plant response rating, Waterhemp” value [3] was 100, the “Plant response rating, Oilseed Rape” value [4] was 80 and the “Plant response rating, Barnyardgrass” value [5] was 100.
With CCOc1nn(-c2ccc(C(F)(F)F)cc2)nc1Cc1ccnc(C(F)(F)F)c1 [Compound 164, 4-[[5-ethoxy-2-[4-(trifluoromethyl)phenyl]-2H-1,2,3-triazol-4-yl]methyl]-2-(trifluoromethyl)pyridine] the “Plant response rating, Barnyardgrass” value [6, 11] was 5, the “Plant response rating, Barnyardgrass” value [6, 12] was 10 and the “Plant response rating, Barnyardgrass” value ([6]; 250 g ai/ha, scale 0 to 100) was 10. The “Plant response rating, Waterhemp” value [7] was 65, the “Plant response rating, Oilseed Rape” value [8] was 20 and the “Plant response rating, Waterhemp” value [9, 11] was 35. The “Plant response rating, Waterhemp” value [9, 12] was 65, the “Plant response rating, Waterhemp” value ([9]; 250 g ai/ha, scale 0 to 100) was 75 and the “Plant response rating, Oilseed Rape” value [10, 11] was 5. The “Plant response rating, Oilseed Rape” value [10, 12] was 5, the “Plant response rating, Oilseed Rape” value ([10]; 250 g ai/ha, scale 0 to 100) was 25 and the “Plant response rating, Oilseed Rape” value ([1]; 62 g ai/ha) was 5. The “Plant response rating, Oilseed Rape” value [2] was 30 and the “Plant response rating, Barnyardgrass” value [5] was 70.
